Assays:
[1] = excess molar enthalpy (molar enthalpy of mixing); xn = mol fraction of the nth substance listed; conditions: 101.3 kPa, Liquid, Flow calorimetry
[2] = Liquid; for mass density: 298.15 K, 101.3 kPa; for Normal boiling temperature: Ebulliometric method (Recirculating still)

OCCO [1,2-ethanediol] + CCCCO
excess molar enthalpy [kcal/mol], [1]
Conditions	298.15 K	308.15 K	323.15 K
x1 = 0.0798	–	–	0.0775
x1 = 0.0803	0.0708	0.0745	–
x1 = 0.1548	0.115	0.122	–
x1 = 0.1552	–	–	0.124
x1 = 0.225	0.144	0.152	–
x1 = 0.2253	–	–	0.159
x1 = 0.2912	0.161	0.171	–
x1 = 0.2914	–	–	0.179
x1 = 0.3537	0.172	0.181	–
x1 = 0.354	–	–	0.191
x1 = 0.4129	0.176	0.186	–
x1 = 0.4131	–	–	0.197
x1 = 0.4691	0.177	0.187	–
x1 = 0.4692	–	–	0.199
x1 = 0.5223	–	0.185	–
x1 = 0.5224	0.175	–	0.196
x1 = 0.573	0.17	0.18	0.19
x1 = 0.6211	–	0.172	0.184
x1 = 0.6212	0.163	–	–
x1 = 0.6671	0.154	0.163	0.172
x1 = 0.7108	–	–	0.16
x1 = 0.7109	0.143	0.152	–
x1 = 0.7527	0.132	0.139	0.147
x1 = 0.7926	0.117	0.124	0.132
x1 = 0.8308	0.103	0.108	–
x1 = 0.8309	–	–	0.116
x1 = 0.8675	0.0857	0.0913	0.0944
x1 = 0.9026	0.0679	0.0715	0.0749
x1 = 0.9362	0.0466	0.0485	–
x1 = 0.9363	–	–	0.0521
x1 = 0.9686	0.0243	0.026	–
x1 = 0.9687	–	–	0.0267

CCCO [propan-1-ol]
[2]
Conditions	Normal boiling temperature [°C]	mass density [kg/m3]
–	97.16	799.8

CO [methanol]
[2]
Conditions	Normal boiling temperature [°C]	mass density [kg/m3]
–	64.47	786.4

OCCO [1,2-ethanediol] + CO
[1]
Conditions	excess molar enthalpy [kcal/mol]
298.15 K, x1 = 0.037	0.00564
298.15 K, x1 = 0.0748	0.0106
298.15 K, x1 = 0.1137	0.0147
298.15 K, x1 = 0.1538	0.0184
298.15 K, x1 = 0.195	0.0216
298.15 K, x1 = 0.2374	0.024
298.15 K, x1 = 0.2811	0.0263
298.15 K, x1 = 0.3262	0.0274
298.15 K, x1 = 0.3726	0.0287
298.15 K, x1 = 0.4206	0.0289
298.15 K, x1 = 0.4701	0.0289
298.15 K, x1 = 0.5212	0.0282
298.15 K, x1 = 0.574	0.027
298.15 K, x1 = 0.6286	0.0251
298.15 K, x1 = 0.6851	0.0226
298.15 K, x1 = 0.7436	0.0197
298.15 K, x1 = 0.8042	0.0157
298.15 K, x1 = 0.867	0.0114
298.15 K, x1 = 0.9321	0.00591
308.15 K, x1 = 0.0372	0.00594
308.15 K, x1 = 0.0752	0.0113
308.15 K, x1 = 0.1143	0.0158
308.15 K, x1 = 0.1545	0.0196
308.15 K, x1 = 0.1958	0.0234
308.15 K, x1 = 0.2384	0.0258
308.15 K, x1 = 0.2822	0.0282
308.15 K, x1 = 0.3274	0.0298
308.15 K, x1 = 0.3739	0.0307
308.15 K, x1 = 0.4219	0.0314
308.15 K, x1 = 0.4715	0.0311
308.15 K, x1 = 0.5226	0.0302
308.15 K, x1 = 0.5754	0.0285
308.15 K, x1 = 0.6299	0.0269
308.15 K, x1 = 0.6863	0.0243
308.15 K, x1 = 0.7447	0.021
308.15 K, x1 = 0.8051	0.0169
308.15 K, x1 = 0.8676	0.0121
308.15 K, x1 = 0.9325	0.00632
323.15 K, x1 = 0.0371	0.00686
323.15 K, x1 = 0.075	0.0127
323.15 K, x1 = 0.114	0.0179
323.15 K, x1 = 0.154	0.0219
323.15 K, x1 = 0.1953	0.0258
323.15 K, x1 = 0.2378	0.0291
323.15 K, x1 = 0.2815	0.0316
323.15 K, x1 = 0.3266	0.0332
323.15 K, x1 = 0.3732	0.0343
323.15 K, x1 = 0.4211	0.035
323.15 K, x1 = 0.4706	0.0344
323.15 K, x1 = 0.5218	0.034
323.15 K, x1 = 0.5746	0.0322
323.15 K, x1 = 0.6292	0.0298
323.15 K, x1 = 0.6856	0.0271
323.15 K, x1 = 0.744	0.0231
323.15 K, x1 = 0.8046	0.0185
323.15 K, x1 = 0.8673	0.013
323.15 K, x1 = 0.9323	0.00668

CCCCO [butan-1-ol]
[2]
Conditions	Normal boiling temperature [°C]	mass density [kg/m3]
–	117.71	805.9

CCC(C)O (configuration not stated) [butan-2-ol] + OCCO
excess molar enthalpy [kcal/mol], [1]
Conditions	298.15 K	308.15 K	323.15 K
x2 = 0.081	0.0655	0.0583	0.0422
x2 = 0.1557	0.109	0.101	0.0777
x2 = 0.226	0.136	0.128	0.103
x2 = 0.2923	0.154	0.145	0.12
x2 = 0.3549	0.164	0.155	0.131
x2 = 0.4142	0.167	0.161	0.137
x2 = 0.4703	0.167	0.161	0.139
x2 = 0.5235	0.165	0.159	0.139
x2 = 0.5741	0.16	0.154	0.136
x2 = 0.6222	0.152	0.148	0.132
x2 = 0.6681	0.144	0.14	0.126
x2 = 0.7117	0.133	0.13	0.117
x2 = 0.7535	0.122	0.119	0.108
x2 = 0.7933	0.107	0.106	0.0979
x2 = 0.8314	0.093	0.0915	0.0851
x2 = 0.868	0.0777	0.0769	0.071
x2 = 0.9029	0.0603	0.0602	0.055
x2 = 0.9365	0.0421	0.0412	0.0373
x2 = 0.9687	0.0223	0.0221	0.0192
